Laboratory results reported in the supplement of paper PMC4862054.

How the values were obtained:
Conditions in all cases: incubation time: 72 h
BT-474 [1] = experiment: normalised response (% of control), CellTox Green; higher = less cell death (100 = DMSO, 0 = benzethonium chloride kill control)
How it was run: (§1)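 Breast cancer cell lines were exposed for 72 h in 384-well plates to compound at 5 concentrations, 10-fold apart, covering a 10,000-fold range fixed for each compound. Plates were read for CellTox Green fluorescence and CellTiter-Glo luminescence and normalised to 0.1 % DMSO (100) and a positive kill control (0). Each value is the normalised signal at one concentration of the series.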

BT-549 [2] = experiment: as above
How it was run: as §1

CAL-120 [3] = experiment: as above
How it was run: as §1

CAL-148 [4] = experiment: as above
How it was run: as §1

CAL-51 [5] = experiment: as above
How it was run: as §1

CAL-85-1 [6] = experiment: as above
How it was run: as §1

DU-4475 [7] = experiment: as above
How it was run: as §1

HCC1599 [8] = experiment: as above
How it was run: as §1

Hs578T [9] = experiment: as above
How it was run: as §1

MCF-10A [10] = experiment: as above
How it was run: as §1

MDA-MB-231 [11] = experiment: as above
How it was run: as §1

MDA-MB-436 [12] = experiment: as above
How it was run: as §1

MDA-MB-453 [13] = experiment: as above
How it was run: as §1

MDA-MB-468 [14] = experiment: as above
How it was run: as §1

MFM-223 [15] = experiment: as above
How it was run: as §1

BT-474 [16] = experiment: normalised response (% of control), CellTiter-Glo; higher = more viable cells (100 = DMSO, 0 = benzethonium chloride kill control)
How it was run: as §1

BT-549 [17] = experiment: as above
How it was run: as §1

CAL-120 [18] = experiment: as above
How it was run: as §1

CAL-148 [19] = experiment: as above
How it was run: as §1

CAL-51 [20] = experiment: as above
How it was run: as §1

CAL-85-1 [21] = experiment: as above
How it was run: as §1

DU-4475 [22] = experiment: as above
How it was run: as §1

HCC1143 [23] = experiment: as above
How it was run: as §1

HCC1599 [24] = experiment: as above
How it was run: as §1

HCC1937 [25] = experiment: as above
How it was run: as §1

HDQ-P1 [26] = experiment: as above
How it was run: as §1

Hs578T [27] = experiment: as above
How it was run: as §1

MCF-10A [28] = experiment: as above
How it was run: as §1

MDA-MB-231 [29] = experiment: as above
How it was run: as §1

MDA-MB-436 [30] = experiment: as above
How it was run: as §1

MDA-MB-453 [31] = experiment: as above
How it was run: as §1

MDA-MB-468 [32] = experiment: as above
How it was run: as §1

MFM-223 [33] = experiment: as above
How it was run: as §1

SK-BR-3 = experiment: as above
How it was run: as §1

HCC1143 [34] = experiment: normalised response (% of control), CellTox Green; higher = less cell death (100 = DMSO, 0 = benzethonium chloride kill control)
How it was run: as §1

HDQ-P1 [35] = experiment: as above
How it was run: as §1

HCC1937 [36] = experiment: as above
How it was run: as §1

Row | SMILES | normalised response (BT-474 [1]) [%] | normalised response (BT-549 [2]) [%] | normalised response (CAL-120 [3]) [%] | normalised response (CAL-148 [4]) [%] | normalised response (CAL-51 [5]) [%] | normalised response (CAL-85-1 [6]) [%] | normalised response (DU-4475 [7]) [%] | normalised response (HCC1599 [8]) [%] | normalised response (Hs578T [9]) [%] | normalised response (MCF-10A [10]) [%] | normalised response (MDA-MB-231 [11]) [%] | normalised response (MDA-MB-436 [12]) [%] | normalised response (MDA-MB-453 [13]) [%] | normalised response (MDA-MB-468 [14]) [%] | normalised response (MFM-223 [15]) [%] | normalised response (BT-474 [16]) [%] | normalised response (BT-549 [17]) [%] | normalised response (CAL-120 [18]) [%] | normalised response (CAL-148 [19]) [%] | normalised response (CAL-51 [20]) [%] | normalised response (CAL-85-1 [21]) [%] | normalised response (DU-4475 [22]) [%] | normalised response (HCC1143 [23]) [%] | normalised response (HCC1599 [24]) [%] | normalised response (HCC1937 [25]) [%] | normalised response (HDQ-P1 [26]) [%] | normalised response (Hs578T [27]) [%] | normalised response (MCF-10A [28]) [%] | normalised response (MDA-MB-231 [29]) [%] | normalised response (MDA-MB-436 [30]) [%] | normalised response (MDA-MB-453 [31]) [%] | normalised response (MDA-MB-468 [32]) [%] | normalised response (MFM-223 [33]) [%] | normalised response (SK-BR-3) [%] | normalised response (HCC1143 [34]) [%] | normalised response (HDQ-P1 [35]) [%] | normalised response (HCC1937 [36]) [%]
1 | CC(C)(C)Cn1c(N)nc2ccc(-c3[nH]c(C(C)(C)C)nc3-c3ccc(F)cc3)nc21 (1000 nM) | 101 | 111 | 81.1 | 99.9 | 94 | 90.7 | 105 | 84.3 | 80.6 | 77.7 | 110 | 78.8 | 101 | 113 | 99.5 | 101 | 93.7 | 96.6 | 93.1 | 103 | 104 | 94.8 | 98 | 111 | 93.6 | 94.6 | 97.7 | 89.7 | 100 | 102 | 92.8 | 93.4 | 97.9 | 97.7 |  |  | 
2 | Cn1cc(C[C@@H](N)C(=O)O)c2ccccc21 [1-methyl-D-tryptophan] (500 nM) | 99.3 |  | 99.3 | 91.4 | 95.5 | 98.8 | 101 | 85.2 | 66.7 | 113 | 95.6 | 88.9 | 103 | 143 | 84.3 | 97.6 | 105 | 105 | 89.7 | 81.3 | 100 | 94.4 | 94.8 | 115 | 99.3 | 107 | 115 | 104 | 96.6 | 101 | 105 | 101 | 92.7 | 92.7 | 94.1 | 107 | 
3 | CC[C@H](CC#N)OC(=O)N[C@@H](C)c1cccc(NC(=O)Nc2ccc(-c3cnco3)c(OC)c2)c1 [AVN944] (1000 nM) | 86.3 | 127 | 99.9 | -21.7 | 63.5 | 97 | 88.2 | 85 | 32 | 112 | 81.8 | 74 | 90.3 | 131 | 44.7 | 58.7 | 36.3 | 59.9 | 34.3 | 24.1 | 40.8 | 29.2 | 42.3 | 48.1 | 52.7 | 46.1 | 44.4 | 58 | 53.5 | 42.7 | 84.4 | 37.5 | 71.3 | 51.3 | 56.6 | 98.8 | 76.8
4 | CCc1cnn2c(NCc3ccc[n+]([O-])c3)cc(N3CCCC[C@H]3CCO)nc12 [Dinaciclib] (100 nM) | 71 | 53.8 | 87.7 | 50.9 | 50.7 | 21.7 | 96.3 | 71.3 | 38 | 65 | -7.86 | 105 | 100 | -14.9 | 30.3 | 20.7 | 12.7 | 36.6 | 52.9 | 10.2 | 8.18 | 18.6 | 18.8 | 10.5 | 27.6 | 22.3 | 12.9 | 28.7 | 5.94 | 15.8 | 15.5 | 9.07 | 14.8 | 4.18 | 88.7 | 63.2 | 87.2
5 | COc1cc(Nc2ncc(F)c(Nc3ccc4c(n3)N(COP(=O)(O)O)C(=O)C(C)(C)O4)n2)cc(OC)c1OC [Fostamatinib] (250 nM) | 97.8 | 82.7 | 101 | 93.1 | 92.2 | 106 | 100 | 92.7 | 97.7 | 102 | 53.7 | 86.6 | 107 | 57 | 101 | 88.2 | 93.7 | 86.9 | 91.4 | 105 | 96.1 | 94.8 | 95 | 110 | 94.9 | 103 | 91.3 | 84 | 85 | 105 | 93.7 | 90.5 | 63.1 | 98.1 | 76.3 | 109 | 125
